Experimental data reported in ChEMBL document CHEMBL1629509, “Design, synthesis and inhibitory activity against Mycobacterium tuberculosis thymidine monophosphate kinase of acyclic nucleoside analogues with a distal imidazoquinolinone” (Eur J Med Chem, 2010).
In brackets after ≈: the same amount, converted by molar mass. Activity calls are given as the source filed them. The calls are words filed in the database; no cut-off is given here.

Assays:
Thymidylate kinase = molecular target: T1, Thymidylate kinase (Mycobacterium tuberculosis, UniProt P9WKE1); experiment: Inhibition of Mycobacterium tuberculosis Thymidine monophosphate kinase by spectrophotometry
T1 sequence (P9WKE1 whole entry): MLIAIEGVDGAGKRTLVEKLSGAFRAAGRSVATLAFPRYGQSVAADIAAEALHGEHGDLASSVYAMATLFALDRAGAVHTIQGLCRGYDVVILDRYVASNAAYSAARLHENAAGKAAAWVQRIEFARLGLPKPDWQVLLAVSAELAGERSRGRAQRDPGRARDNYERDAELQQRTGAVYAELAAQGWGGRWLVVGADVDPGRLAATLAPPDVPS

[1] = tested on: Mycolicibacterium smegmatis; experiment: Antimycobacterial activity against Mycobacterium smegmatis mc2155 assessed as growth inhibition at 160 ug/ml by resazurin microtiter plate assay; assay type: functional, organism-based
[2] = Solubility of the compound in water; assay type: physicochemical

SMILES: CC(=O)Nc1cc2c3c(c1)n(C/C=C/Cn1cc(C)c(=O)[nH]c1=O)c(=O)n3CCC2
- Ki (Thymidylate kinase): 930 nM
- Activity [1]: inactive

SMILES: Cc1cn([C@H]2C[C@H](O)[C@@H](COP(=O)(O)O)O2)c(=O)[nH]c1=O [THYMIDINE MONOPHOSPHATE]
- Ki (Thymidylate kinase): 4500 nM

SMILES: CC(=O)NC1Cc2cccc3c2n(c(=O)n3C/C=C/Cn2cc(C)c(=O)[nH]c2=O)C1 (stereo not drawn)
- Ki (Thymidylate kinase): 5800 nM
- Activity [1]: inactive

SMILES: Cc1cn(C/C=C/CN2c3cccc4c3N(CCC4)S2(=O)=O)c(=O)[nH]c1=O
- Ki (Thymidylate kinase): 570 nM
- Activity [1]: inactive

SMILES: Cc1cn(C/C=C/Cn2c(=O)n3c4c(cccc42)CCC3)c(=O)[nH]c1=O
- Ki (Thymidylate kinase): 1160 nM
- Activity [1]: inactive

SMILES: Cc1cn(C/C=C/Cn2c(=O)n3c4c(cc(N)cc42)CCC3)c(=O)[nH]c1=O
- Ki (Thymidylate kinase): 2460 nM
- Activity [1]: inactive

SMILES: Cc1cn(C/C=C/CN2C(=O)c3cccc4cccc2c34)c(=O)[nH]c1=O
- solubility [2]: 640 µg/mL (≈ 1840 µM)
- Ki (Thymidylate kinase): 420 nM

SMILES: O=c1[nH]c(=O)n(C/C=C/CN2c3cccc4c3N(CCC4)S2(=O)=O)cc1Br
- Ki (Thymidylate kinase): 300 nM
- Activity [1]: inactive

SMILES: Cc1cn(C/C=C/CN2c3cccc4cccc(c34)S2(=O)=O)c(=O)[nH]c1=O
- Ki (Thymidylate kinase): 270 nM

SMILES: Cc1cn(C/C=C/Cn2c(=O)n3c4c(cccc42)CC(N)C3)c(=O)[nH]c1=O (stereo not drawn)
- Ki (Thymidylate kinase): 7070 nM
- Activity [1]: inactive
